Data on 22 compounds can be found in patent US10722501B2 (BAYER AKTIENGESELLSCHAFT, priority 2016, dated 2020).

In this test the target is T1, recombinant full-length human prolyl endopeptidase (PREP) (Homo sapiens, UniProt P48147).
T1 construct: To recombinant full-length human prolyl endopeptidase (PREP, R&D-Systems, 4308-SE); purchased R&D-Systems 4308-SE
T1 sequence (P48147 1-710): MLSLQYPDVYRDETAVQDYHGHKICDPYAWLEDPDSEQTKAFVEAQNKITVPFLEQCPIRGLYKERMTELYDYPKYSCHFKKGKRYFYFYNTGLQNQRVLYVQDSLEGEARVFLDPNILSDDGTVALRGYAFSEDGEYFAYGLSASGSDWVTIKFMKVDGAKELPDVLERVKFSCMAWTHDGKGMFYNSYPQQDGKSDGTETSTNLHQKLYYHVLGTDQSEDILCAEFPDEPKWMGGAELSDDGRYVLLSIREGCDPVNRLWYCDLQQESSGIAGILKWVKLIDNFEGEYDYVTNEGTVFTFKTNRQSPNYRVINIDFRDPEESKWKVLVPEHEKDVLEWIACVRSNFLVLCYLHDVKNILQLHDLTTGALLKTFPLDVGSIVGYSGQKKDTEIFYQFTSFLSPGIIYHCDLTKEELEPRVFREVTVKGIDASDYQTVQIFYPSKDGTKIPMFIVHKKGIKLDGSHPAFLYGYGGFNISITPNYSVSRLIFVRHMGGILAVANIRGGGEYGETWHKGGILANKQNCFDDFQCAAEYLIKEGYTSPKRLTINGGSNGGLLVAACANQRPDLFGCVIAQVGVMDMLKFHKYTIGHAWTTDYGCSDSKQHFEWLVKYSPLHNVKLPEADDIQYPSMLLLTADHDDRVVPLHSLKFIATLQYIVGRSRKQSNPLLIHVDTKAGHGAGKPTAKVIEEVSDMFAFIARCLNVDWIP
The experiment in a line: Biochemical human prolyl endopeptidase (PREP) assay with fluorescently labelled substrate. To be noted: substrate Z-Gly-Pro-AMC 50 μM, 32° C., 60 min; some as mean values from multiple independent determinations. Summed up:
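0.4 nM (final, example) recombinant PREP in pH 7.5 Tris buffer with EDTA, GSH, BSA and Brij-35; compounds at 1 nM to 30 μM. Reaction started with 50 μM Z-Gly-Pro-AMC and followed by fluorescence (ex 360/em 465 nm) at 32° C for 60 min. IC50 interpolated from percent activity based on initial slopes.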
For `O=C(C1CC(C(F)(F)F)Cc2nn(Cc3ccc(Cl)cn3)c(=O)n21)N1CCC(F)(F)C1` (single isomer, unassigned) [Example 567, (5RS,7RS)-2-[(5-Chloropyridin-2-yl)methyl]-5-[(3,3-difluoropyrrolidin-1-yl)carbonyl]-7-(trifluoromethyl)-5,6,7,8-tetrahydro[1,2,4]triazolo[4,3-a]pyridin-3(2H)-one], the IC50 amounted to 2.7 nM.

`O=C(C1CC(C(F)(F)F)Cc2nn(Cc3ncc(F)cc3F)c(=O)n21)N1CC[C@H](F)C1` (single isomer, unassigned) [Example 570]: the IC50 was 0.57 nM.

As to `O=C(C1CC(C(F)(F)F)Cc2nn(Cc3ncc(F)cc3Cl)c(=O)n21)N1CC[C@H](F)C1` (single isomer, unassigned) [Example 572], the IC50 is 1.4 nM.

On to `O=C(C1CC(C(F)(F)F)Cc2nn(Cc3ncc(F)cc3F)c(=O)n21)N1CCC(F)(F)C1` (single isomer, unassigned) [Example 574, (5RS,7RS)-2-[(3,5-Difluoropyridin-2-yl)methyl]-5-[(3,3-difluoropyrrolidin-1-yl)carbonyl]-7-(trifluoromethyl)-5,6,7,8-tetrahydro[1,2,4]triazolo[4,3-a]pyridin-3(2H)-one], for which the IC50 came to 5.2 nM.

For the compound `O=C(C1CC(C(F)(F)F)Cc2nn(Cc3ncc(F)cc3Cl)c(=O)n21)N1CCC(F)(F)C1` (single isomer, unassigned) [Example 576, (5RS,7RS)-2-[(3-Chloro-5-fluoropyridin-2-yl)methyl]-5-[(3,3-difluoropyrrolidin-1-yl)carbonyl]-7-(trifluoromethyl)-5,6,7,8-tetrahydro[1,2,4]triazolo[4,3-a]pyridin-3(2H)-one], the IC50 is 8.7 nM.

In the case of `O=C(C1CC(C(F)(F)F)Cc2nn(Cc3ccc(C(F)(F)F)nc3)c(=O)n21)N1CC(F)C(F)C1` (single isomer, unassigned) [Example 583], the concentration for half-maximal inhibition (IC50) is 970 nM.

As for `O=C(C1CC(C(F)(F)F)Cc2nn(Cc3ccc(C(F)(F)F)nc3)c(=O)n21)N1CC(F)C(F)C1` (single isomer, unassigned) [Example 584], the concentration for half-maximal inhibition (IC50) came out at 50 nM.

For the compound `Cc1ccc(Cn2nc3n(c2=O)[C@H](C(=O)N2CCCC2)CCC3)cc1` [Example 26, (5S)-2-(4-Methylbenzyl)-5-(pyrrolidin-1-ylcarbonyl)-5,6,7,8-tetrahydro[1,2,4]triazolo[4,3-a]pyridin-3(2H)-one], the half-inhibitory concentration (IC50) turned out to be 0.73 nM.

Regarding `O=C([C@@H]1CCc2nn(Cc3ccc(C(F)(F)F)nc3)c(=O)n21)N1CCCC1` [Example 50, (5S)-5-(Pyrrolidin-1-ylcarbonyl)-2-{[6-(trifluoromethyl)pyridin-3-yl]methyl}-2,5,6,7-tetrahydro-3H-pyrrolo[2,1-c][1,2,4]triazol-3-one], the IC50 was 12 nM.

In the case of `O=C([C@@H]1CCc2nn(Cc3ccc(F)c(Cl)c3)c(=O)n21)N1CCCC1` [Example 51, (5S)-2-(3-Chloro-4-fluorobenzyl)-5-(pyrrolidin-1-ylcarbonyl)-2,5,6,7-tetrahydro-3H-pyrrolo[2,1-c][1,2,4]triazol-3-one], the IC50 came out at 0.89 nM.

For `O=C([C@@H]1CCc2nn(Cc3ccc(Cl)nc3)c(=O)n21)N1CCCC1` [Example 52, (5S)-2-[(6-Chloropyridin-3-yl)methyl]-5-(pyrrolidin-1-ylcarbonyl)-2,5,6,7-tetrahydro-3H-pyrrolo[2,1-c][1,2,4]triazol-3-one], the IC50 is 4.6 nM.

For `O=C([C@@H]1CCc2nn(Cc3cccc(C(F)(F)F)c3)c(=O)n21)N1CCCC1` [Example 55, (5S)-5-(Pyrrolidin-1-ylcarbonyl)-2-[3-(trifluoromethyl)benzyl]-2,5,6,7-tetrahydro-3H-pyrrolo[2,1-c][1,2,4]triazol-3-one], the 50% inhibitory concentration (IC50) came to 1.4 nM.

For the compound `O=C([C@@H]1CCCc2nn(Cc3ccnc(C(F)(F)F)c3)c(=O)n21)N1CCCC1` [Example 74, (5S)-5-(Pyrrolidin-1-ylcarbonyl)-2-{[2-(trifluoromethyl)pyridin-4-yl]methyl}-5,6,7,8-tetrahydro[1,2,4]triazolo[4,3-a]pyridin-3(2H)-one], the IC50 came out at 4.75 nM.

On to `O=C([C@@H]1CCCc2nn(Cc3ccnc(C(F)(F)F)c3F)c(=O)n21)N1CCCC1` [Example 75, (5S)-2-{[3-Fluoro-2-(trifluoromethyl)pyridin-4-yl]methyl}-5-(pyrrolidin-1-ylcarbonyl)-5,6,7,8-tetrahydro[1,2,4]triazolo[4,3-a]pyridin-3(2H)-one], for which the IC50 amounted to 1.1 nM.

Consider `O=C([C@@H]1CCCc2nn(Cc3cc(C(F)(F)F)nc4ccccc34)c(=O)n21)N1CCCC1` [Example 76, (5S)-5-(Pyrrolidin-1-ylcarbonyl)-2-{[2-(trifluoromethyl)quinolin-4-yl]methyl}-5,6,7,8-tetrahydro[1,2,4]triazolo[4,3-a]pyridin-3(2H)-one], for which the IC50 amounted to 0.38 nM.

On to `O=C([C@@H]1CCCc2nn(Cc3cc(C(F)(F)F)ccn3)c(=O)n21)N1CCCC1` [Example 93, (5S)-5-(Pyrrolidin-1-ylcarbonyl)-2-{[4-(trifluoromethyl)pyridin-2-yl]methyl}-5,6,7,8-tetrahydro[1,2,4]triazolo[4,3-a]pyridin-3(2H)-one], for which the half-inhibitory concentration (IC50) is 6 nM.

For the compound `O=C([C@@H]1CCCc2nn(Cc3ccnc(C(F)(F)F)n3)c(=O)n21)N1CCCC1` [Example 94, (5S)-5-(Pyrrolidin-1-ylcarbonyl)-2-{[2-(trifluoromethyl)pyrimidin-4-yl]methyl}-5,6,7,8-tetrahydro[1,2,4]triazolo[4,3-a]pyridin-3(2H)-one], the IC50 turned out to be 57 nM.

With `O=C([C@@H]1CCCc2nn(Cc3ccc(F)c(Cl)c3)c(=O)n21)N1CC[C@H](O)C1` [Example 97, (5S)-2-(3-Chloro-4-fluorobenzyl)-5-{[(3S)-3-hydroxypyrrolidin-1-yl]carbonyl}-5,6,7,8-tetrahydro[1,2,4]triazolo[4,3-a]pyridin-3(2H)-one], the half-maximal inhibitory concentration (IC50) came to 6.5 nM.

For the compound `O=C([C@@H]1CCCc2nn(Cc3cccc(C(F)(F)F)c3)c(=O)n21)N1CC[C@H](O)C1` [Example 99, (5S)-5-{[(3S)-3-Hydroxypyrrolidin-1-yl]carbonyl}-2-[3-(trifluoromethyl)benzyl]-5,6,7,8-tetrahydro[1,2,4]triazolo[4,3-a]pyridin-3(2H)-one], the half-maximal inhibitory concentration (IC50) came to 12.7 nM.

As to `Cc1cc(C)c(Cn2nc3n(c2=O)[C@H](C(=O)N2CCCC2)CCC3)cc1C` [Example 102, (5S)-5-(Pyrrolidin-1-ylcarbonyl)-2-(2,4,5-trimethylbenzyl)-5,6,7,8-tetrahydro[1,2,4]triazolo[4,3-a]pyridin-3(2H)-one], the IC50 was 0.25 nM.

In the case of `O=C([C@@H]1CCCc2nn(Cc3ncc(C(F)(F)F)cc3Cl)c(=O)n21)N1CCCC1` [Example 106, (5S)-2-{[3-Chloro-5-(trifluoromethyl)pyridin-2-yl]methyl}-5-(pyrrolidin-1-ylcarbonyl)-5,6,7,8-tetrahydro[1,2,4]triazolo[4,3-a]pyridin-3(2H)-one], the IC50 worked out at 1.7 nM.

With `Cc1ccc(Cn2nc3n(c2=O)[C@H](C(=O)N2CCSC2)CCC3)cc1` [Example 108, (5S)-2-(4-Methylbenzyl)-5-(1,3-thiazolidin-3-ylcarbonyl)-5,6,7,8-tetrahydro[1,2,4]triazolo[4,3-a]pyridin-3(2H)-one], the IC50 amounted to 0.15 nM.

By IC50 is commonly meant the midpoint of a concentration-inhibition curve.
